Source: BindingDB's records for patent US20250011332 (Soter Biopharma, 2025)

Columns and labels:
[1] = biological target: T1, Tyrosine-protein kinase JAK3 (Homo sapiens, UniProt P52333); test: Jak3 Kinase Activity Test In Vitro
T1 sequence (P52333 whole entry): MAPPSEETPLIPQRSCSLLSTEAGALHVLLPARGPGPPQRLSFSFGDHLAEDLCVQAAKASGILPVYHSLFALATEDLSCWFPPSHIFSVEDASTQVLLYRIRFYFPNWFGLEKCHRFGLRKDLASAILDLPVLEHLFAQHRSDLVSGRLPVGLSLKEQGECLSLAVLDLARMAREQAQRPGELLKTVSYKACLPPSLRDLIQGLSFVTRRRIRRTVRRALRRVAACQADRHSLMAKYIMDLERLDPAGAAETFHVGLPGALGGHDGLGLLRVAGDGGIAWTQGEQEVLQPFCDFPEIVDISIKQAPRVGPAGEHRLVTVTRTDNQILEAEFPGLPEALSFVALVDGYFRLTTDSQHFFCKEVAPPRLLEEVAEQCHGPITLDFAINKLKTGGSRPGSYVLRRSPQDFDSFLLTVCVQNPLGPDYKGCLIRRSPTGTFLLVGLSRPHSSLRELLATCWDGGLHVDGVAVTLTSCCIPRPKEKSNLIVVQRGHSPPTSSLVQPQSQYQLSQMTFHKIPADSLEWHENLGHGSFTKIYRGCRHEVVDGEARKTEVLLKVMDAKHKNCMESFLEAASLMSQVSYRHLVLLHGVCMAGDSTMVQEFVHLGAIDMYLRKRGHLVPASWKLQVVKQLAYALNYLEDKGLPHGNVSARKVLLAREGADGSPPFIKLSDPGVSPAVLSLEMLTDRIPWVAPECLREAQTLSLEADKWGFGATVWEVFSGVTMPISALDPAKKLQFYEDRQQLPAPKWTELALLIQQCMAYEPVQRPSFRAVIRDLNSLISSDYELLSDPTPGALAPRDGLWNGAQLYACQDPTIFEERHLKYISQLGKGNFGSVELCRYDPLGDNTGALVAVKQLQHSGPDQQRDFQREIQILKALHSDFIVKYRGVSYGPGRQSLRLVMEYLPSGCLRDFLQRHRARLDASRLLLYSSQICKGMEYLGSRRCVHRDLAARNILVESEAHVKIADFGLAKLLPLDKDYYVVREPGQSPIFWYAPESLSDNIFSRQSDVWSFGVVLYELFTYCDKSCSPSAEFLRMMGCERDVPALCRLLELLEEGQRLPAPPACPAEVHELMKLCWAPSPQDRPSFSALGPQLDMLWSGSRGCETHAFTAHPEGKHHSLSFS
Method: (§1) JAK3(h) was incubated with 8 mM MOPS pH 7.0, 0.2 mM EDTA, 500 μM GGEEEEYFELVKKKK (SEQ ID NO: 3), 10 mM magnesium acetate, and [γ-33P]-ATP (activity and concentration were determined as required). The reaction was started by adding the Mg/ATP mixture, and after incubation at room temperature for 40 min, the reaction was terminated by adding 0.5% phosphoric acid. Then 10 μL of the reaction product was spotted on a P30 filter pad which was washed three times with 0.425% phosphoric acid and once with methanol within 4 min, dried, and subjected to scintillation counting.

[2] = biological target: Tyrosine-protein kinase JAK1 (Homo sapiens, UniProt P23458); test: Jak1 Kinase Activity Test In Vitro
Method: JAK1(h) was incubated with 20 mM Tris/HCl pH 7.5, 0.2 mM EDTA, 500 μM MGEEPLYWSFPAKKK (SEQ ID NO: 1), 10 mM magnesium acetate and [γ-33P]-ATP (activity and concentration were determined as required). The reaction was started by adding the Mg/ATP mixture, and after incubation at room temperature for 40 min, the reaction was terminated by adding 0.5% phosphoric acid. Then 10 μL of the reaction product was spotted on a P30 filter pad which was washed three times with 0.425% phosphoric acid and once with methanol within 4 min, dried, and subjected to scintillation counting.

[3] = biological target: Non-receptor tyrosine-protein kinase TYK2 (Homo sapiens, UniProt P29597); test: TYK2 Kinase Activity Test In Vitro
Method: as §1, with “TYK2(h)” for “JAK3(h)”, “250” for “500”, “GGMEDIYFEFMGGKKK” for “GGEEEEYFELVKKKK”, “4),” for “3),”

[4] = biological target: Tyrosine-protein kinase JAK2 (Homo sapiens, UniProt O60674); test: Jak2 Kinase Activity Test In Vitro
Method: as §1, with “JAK2(h)” for “JAK3(h)”, “100” for “500”, “GGEEEEYFELVKKKK” left out, “2),” for “3),”

Tyrosine-protein kinase JAK2, sequence (O60674 whole entry): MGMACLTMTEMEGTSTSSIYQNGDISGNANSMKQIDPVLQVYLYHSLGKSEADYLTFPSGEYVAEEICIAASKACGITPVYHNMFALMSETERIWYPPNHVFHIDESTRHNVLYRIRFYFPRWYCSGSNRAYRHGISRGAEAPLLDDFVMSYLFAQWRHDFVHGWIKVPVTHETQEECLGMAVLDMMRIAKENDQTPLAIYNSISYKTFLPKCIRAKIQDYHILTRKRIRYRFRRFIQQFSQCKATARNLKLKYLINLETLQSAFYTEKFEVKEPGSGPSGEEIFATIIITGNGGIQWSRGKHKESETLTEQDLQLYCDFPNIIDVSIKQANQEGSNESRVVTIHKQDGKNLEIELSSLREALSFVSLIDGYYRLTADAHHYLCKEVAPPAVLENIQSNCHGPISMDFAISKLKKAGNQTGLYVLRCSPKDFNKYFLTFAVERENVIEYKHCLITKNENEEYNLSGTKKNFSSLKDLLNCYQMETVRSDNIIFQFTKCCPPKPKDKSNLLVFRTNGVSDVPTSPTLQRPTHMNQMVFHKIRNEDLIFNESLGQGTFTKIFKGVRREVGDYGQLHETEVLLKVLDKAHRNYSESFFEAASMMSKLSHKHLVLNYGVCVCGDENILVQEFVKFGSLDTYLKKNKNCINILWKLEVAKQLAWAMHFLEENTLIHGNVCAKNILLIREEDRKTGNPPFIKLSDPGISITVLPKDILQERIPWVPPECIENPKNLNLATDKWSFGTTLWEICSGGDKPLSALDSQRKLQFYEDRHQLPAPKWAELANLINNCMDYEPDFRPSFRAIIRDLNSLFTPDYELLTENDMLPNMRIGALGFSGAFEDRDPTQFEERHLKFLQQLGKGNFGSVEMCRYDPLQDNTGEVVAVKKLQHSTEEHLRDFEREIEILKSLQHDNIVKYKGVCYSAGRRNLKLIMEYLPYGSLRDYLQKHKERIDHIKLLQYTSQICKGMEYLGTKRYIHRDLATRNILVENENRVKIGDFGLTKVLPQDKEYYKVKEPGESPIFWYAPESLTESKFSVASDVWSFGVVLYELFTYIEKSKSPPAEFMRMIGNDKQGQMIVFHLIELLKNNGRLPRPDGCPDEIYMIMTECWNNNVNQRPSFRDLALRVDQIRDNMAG
Tyrosine-protein kinase JAK1, sequence (P23458 whole entry): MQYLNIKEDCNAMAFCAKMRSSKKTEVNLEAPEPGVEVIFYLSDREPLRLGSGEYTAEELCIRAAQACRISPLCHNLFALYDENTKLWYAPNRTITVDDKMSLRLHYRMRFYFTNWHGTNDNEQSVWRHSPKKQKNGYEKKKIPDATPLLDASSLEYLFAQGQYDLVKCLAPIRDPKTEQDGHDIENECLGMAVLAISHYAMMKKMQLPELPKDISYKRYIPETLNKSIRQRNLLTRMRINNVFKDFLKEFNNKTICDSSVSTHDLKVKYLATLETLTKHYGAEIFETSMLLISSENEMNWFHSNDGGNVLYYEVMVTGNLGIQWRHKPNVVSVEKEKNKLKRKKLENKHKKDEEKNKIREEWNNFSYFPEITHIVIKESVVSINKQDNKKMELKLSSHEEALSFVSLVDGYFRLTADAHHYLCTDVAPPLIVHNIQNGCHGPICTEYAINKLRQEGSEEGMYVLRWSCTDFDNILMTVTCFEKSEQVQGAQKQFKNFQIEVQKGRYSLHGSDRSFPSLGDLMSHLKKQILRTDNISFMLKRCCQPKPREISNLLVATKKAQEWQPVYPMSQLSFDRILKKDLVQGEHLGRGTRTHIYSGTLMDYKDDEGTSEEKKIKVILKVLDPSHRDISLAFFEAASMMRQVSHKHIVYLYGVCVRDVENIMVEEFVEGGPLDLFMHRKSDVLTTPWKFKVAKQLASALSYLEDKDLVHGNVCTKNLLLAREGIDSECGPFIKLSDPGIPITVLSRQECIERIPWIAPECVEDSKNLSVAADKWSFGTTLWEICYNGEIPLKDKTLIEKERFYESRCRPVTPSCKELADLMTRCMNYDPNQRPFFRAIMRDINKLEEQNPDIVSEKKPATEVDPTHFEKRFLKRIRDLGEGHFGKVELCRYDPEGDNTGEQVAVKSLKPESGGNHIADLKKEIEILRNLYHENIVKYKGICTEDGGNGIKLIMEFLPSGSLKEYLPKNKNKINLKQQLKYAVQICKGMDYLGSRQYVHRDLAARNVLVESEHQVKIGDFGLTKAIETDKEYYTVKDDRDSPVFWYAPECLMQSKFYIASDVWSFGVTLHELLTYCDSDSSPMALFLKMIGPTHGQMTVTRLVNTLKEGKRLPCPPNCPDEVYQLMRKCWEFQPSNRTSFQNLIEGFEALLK
Non-receptor tyrosine-protein kinase TYK2, sequence (P29597 whole entry): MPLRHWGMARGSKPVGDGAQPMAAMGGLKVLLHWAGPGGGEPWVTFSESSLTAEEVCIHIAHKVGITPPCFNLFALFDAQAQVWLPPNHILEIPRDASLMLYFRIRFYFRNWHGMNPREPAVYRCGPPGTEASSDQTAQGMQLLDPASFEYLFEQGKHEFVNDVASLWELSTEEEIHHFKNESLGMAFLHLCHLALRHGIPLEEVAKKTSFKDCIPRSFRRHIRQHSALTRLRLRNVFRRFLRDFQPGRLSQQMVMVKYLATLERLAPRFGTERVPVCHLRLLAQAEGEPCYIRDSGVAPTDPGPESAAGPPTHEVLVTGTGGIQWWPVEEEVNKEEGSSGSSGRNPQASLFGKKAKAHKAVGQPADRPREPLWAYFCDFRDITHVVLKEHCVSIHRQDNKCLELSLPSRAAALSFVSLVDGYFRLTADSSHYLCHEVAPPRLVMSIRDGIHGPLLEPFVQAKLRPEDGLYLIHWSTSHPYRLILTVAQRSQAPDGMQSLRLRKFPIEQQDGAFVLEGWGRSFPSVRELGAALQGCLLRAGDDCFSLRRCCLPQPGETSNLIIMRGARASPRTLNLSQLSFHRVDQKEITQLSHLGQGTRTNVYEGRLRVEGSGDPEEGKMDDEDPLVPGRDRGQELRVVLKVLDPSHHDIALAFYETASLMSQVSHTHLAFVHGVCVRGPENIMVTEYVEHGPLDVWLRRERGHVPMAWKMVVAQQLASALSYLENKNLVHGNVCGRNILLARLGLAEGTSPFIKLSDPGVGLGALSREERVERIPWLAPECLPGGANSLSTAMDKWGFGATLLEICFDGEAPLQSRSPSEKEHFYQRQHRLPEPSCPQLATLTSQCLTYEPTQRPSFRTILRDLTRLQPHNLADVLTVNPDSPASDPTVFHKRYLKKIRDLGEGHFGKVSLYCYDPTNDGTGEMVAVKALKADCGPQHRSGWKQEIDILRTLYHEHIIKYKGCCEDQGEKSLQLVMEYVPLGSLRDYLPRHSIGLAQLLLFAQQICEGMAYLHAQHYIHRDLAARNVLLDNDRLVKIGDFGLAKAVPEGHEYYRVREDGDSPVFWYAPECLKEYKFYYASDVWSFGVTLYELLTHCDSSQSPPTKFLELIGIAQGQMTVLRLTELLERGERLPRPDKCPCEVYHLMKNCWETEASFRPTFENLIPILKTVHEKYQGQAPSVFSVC

SMILES	IC50 [1] [nM]	IC50 [2] [nM]	IC50 [3] [nM]	IC50 [4] [nM]
Cn1cc(-c2cn3nccc3c(-c3cnn([C@]4(CC#N)CC5(C[C@@H](C#N)C5)C4)c3)n2)cn1 (some centres undefined) [US20250011332, Compound 2]	480	123	2	–
Cn1cc(-c2cn3nccc3c(-c3cnn([C@]4(CC#N)CC5(C[C@@H](C#N)C5)C4)c3)n2)cn1 (some centres undefined) [US20250011332, Compound 4]	–	–	20	–
Cn1ccc(-c2cn3nccc3c(-c3cnn(C4(CC#N)CC5(CCN(C#N)C5)C4)c3)n2)n1 (centres undefined) [US20250011332, Compound 10]	≥ 10000	281	30	33
Cn1ccc(-c2cn3nccc3c(-c3cnn([C@]4(CC#N)CC5(CC[C@@H](C#N)CC5)C4)c3)n2)n1 (some centres undefined) [US20250011332, Compound 12]	7740	122	6	138
Cn1ccc(-c2cn3nccc3c(-c3cnn([C@]4(CC#N)CC5(CC[C@@H](C#N)CC5)C4)c3)n2)n1 (some centres undefined) [US20250011332, Compound 13]	1080	233	10	103

Second part, the compound after the results:

IC50 [1] [nM]	IC50 [2] [nM]	IC50 [3] [nM]	IC50 [4] [nM]	SMILES
> 1000	229	–	28	Cn1cc(-c2cc(-c3cnn([C@]4(CC#N)CC5(C[C@H](C#N)C5)C4)c3)c3ccnn3c2)cn1 (some centres undefined) [US20250011332, Compound 17]
93	12	–	3	Cn1ncc(-c2cn3nccc3c(-c3cnn([C@]4(CC#N)CC5(C[C@H](C#N)C5)C4)c3)n2)c1N (some centres undefined) [US20250011332, Compound 18]
670	42	2	6	Cn1ncc(-c2cn3nccc3c(-c3cnn([C@]4(CC#N)CC5(C[C@H](C#N)C5)C4)c3)n2)c1N (some centres undefined) [US20250011332, Compound 19]
480	14	1	–	N#CC[C@]1(n2cc(-c3nc(-c4cc(N)[nH]n4)cn4nccc34)cn2)CC2(C[C@@H](C#N)C2)C1 (some centres undefined) [US20250011332, Compound 20]
